In article PMC4076210, “Discovery of Novel AKT Inhibitors with Enhanced Anti-Tumor Effects in Combination with the MEK Inhibitor” (PLoS ONE, 2014):
Where two headings read alike, the source gives them in different places.

Assays:
HIPK3(h) = molecular target: T1, HIPK3(h) (Homo sapiens, UniProt Q9H422); assay: Kinase panel; assay type: biochemical
T1 construct: purchased Millipore KinaseProfiler

PDGFRβ(h) = molecular target: T2, PDGFRβ(h) (Homo sapiens, UniProt P09619); assay: Kinase panel; assay type: biochemical
T2 construct: purchased Millipore KinaseProfiler
T2 sequence (P09619 33-1106): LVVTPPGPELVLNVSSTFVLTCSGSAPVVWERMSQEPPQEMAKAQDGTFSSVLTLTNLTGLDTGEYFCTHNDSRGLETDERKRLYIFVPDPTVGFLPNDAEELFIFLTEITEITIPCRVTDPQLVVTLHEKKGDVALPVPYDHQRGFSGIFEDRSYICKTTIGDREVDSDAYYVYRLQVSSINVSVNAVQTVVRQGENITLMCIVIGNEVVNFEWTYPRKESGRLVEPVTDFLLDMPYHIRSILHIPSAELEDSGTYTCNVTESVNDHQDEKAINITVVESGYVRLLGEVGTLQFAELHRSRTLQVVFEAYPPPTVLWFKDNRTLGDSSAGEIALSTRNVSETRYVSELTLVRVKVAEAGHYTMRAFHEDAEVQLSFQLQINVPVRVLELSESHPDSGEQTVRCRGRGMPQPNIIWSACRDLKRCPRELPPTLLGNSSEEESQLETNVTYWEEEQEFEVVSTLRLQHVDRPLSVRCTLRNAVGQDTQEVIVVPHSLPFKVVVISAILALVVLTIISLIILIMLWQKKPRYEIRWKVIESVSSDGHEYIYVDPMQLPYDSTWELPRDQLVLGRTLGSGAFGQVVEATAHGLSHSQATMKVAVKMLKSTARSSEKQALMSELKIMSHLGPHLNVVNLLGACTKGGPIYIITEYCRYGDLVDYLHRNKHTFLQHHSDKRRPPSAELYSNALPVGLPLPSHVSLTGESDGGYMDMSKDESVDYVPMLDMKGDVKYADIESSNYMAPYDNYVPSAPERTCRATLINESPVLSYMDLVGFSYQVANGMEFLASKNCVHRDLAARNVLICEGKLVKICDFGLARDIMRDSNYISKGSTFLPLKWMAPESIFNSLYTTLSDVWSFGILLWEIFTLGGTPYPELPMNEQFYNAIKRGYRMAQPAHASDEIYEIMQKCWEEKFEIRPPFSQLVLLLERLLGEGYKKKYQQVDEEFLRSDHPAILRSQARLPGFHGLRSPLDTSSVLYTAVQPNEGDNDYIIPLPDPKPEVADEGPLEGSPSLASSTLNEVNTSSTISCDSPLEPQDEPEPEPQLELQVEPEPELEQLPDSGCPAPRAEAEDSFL

LIMK1(h) = molecular target: T3, LIMK1(h) (Homo sapiens, UniProt P53667); assay: Kinase panel; assay type: biochemical
T3 construct: purchased Millipore KinaseProfiler
T3 sequence (P53667 whole entry): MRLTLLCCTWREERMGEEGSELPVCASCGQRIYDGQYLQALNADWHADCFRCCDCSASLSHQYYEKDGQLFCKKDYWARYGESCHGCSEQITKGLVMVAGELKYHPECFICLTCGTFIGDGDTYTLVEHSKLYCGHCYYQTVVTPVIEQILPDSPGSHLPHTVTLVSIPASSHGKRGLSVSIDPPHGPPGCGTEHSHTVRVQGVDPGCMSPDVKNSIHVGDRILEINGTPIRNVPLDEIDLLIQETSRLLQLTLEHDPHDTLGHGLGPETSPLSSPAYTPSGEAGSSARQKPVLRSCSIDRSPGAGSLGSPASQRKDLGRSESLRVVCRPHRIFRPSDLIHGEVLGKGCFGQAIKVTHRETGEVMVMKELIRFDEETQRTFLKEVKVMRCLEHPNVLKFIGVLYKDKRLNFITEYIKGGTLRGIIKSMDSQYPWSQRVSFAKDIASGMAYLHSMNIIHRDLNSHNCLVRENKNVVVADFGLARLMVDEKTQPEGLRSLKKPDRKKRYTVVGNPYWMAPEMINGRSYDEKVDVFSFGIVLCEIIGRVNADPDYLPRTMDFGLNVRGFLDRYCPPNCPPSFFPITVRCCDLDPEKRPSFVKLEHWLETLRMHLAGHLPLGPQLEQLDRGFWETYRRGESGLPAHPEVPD

Flt3(h) = molecular target: T4, Flt3(h) (Homo sapiens, UniProt P36888); assay: Kinase panel; assay type: biochemical
T4 construct: purchased Millipore KinaseProfiler
T4 sequence (P36888 27-993): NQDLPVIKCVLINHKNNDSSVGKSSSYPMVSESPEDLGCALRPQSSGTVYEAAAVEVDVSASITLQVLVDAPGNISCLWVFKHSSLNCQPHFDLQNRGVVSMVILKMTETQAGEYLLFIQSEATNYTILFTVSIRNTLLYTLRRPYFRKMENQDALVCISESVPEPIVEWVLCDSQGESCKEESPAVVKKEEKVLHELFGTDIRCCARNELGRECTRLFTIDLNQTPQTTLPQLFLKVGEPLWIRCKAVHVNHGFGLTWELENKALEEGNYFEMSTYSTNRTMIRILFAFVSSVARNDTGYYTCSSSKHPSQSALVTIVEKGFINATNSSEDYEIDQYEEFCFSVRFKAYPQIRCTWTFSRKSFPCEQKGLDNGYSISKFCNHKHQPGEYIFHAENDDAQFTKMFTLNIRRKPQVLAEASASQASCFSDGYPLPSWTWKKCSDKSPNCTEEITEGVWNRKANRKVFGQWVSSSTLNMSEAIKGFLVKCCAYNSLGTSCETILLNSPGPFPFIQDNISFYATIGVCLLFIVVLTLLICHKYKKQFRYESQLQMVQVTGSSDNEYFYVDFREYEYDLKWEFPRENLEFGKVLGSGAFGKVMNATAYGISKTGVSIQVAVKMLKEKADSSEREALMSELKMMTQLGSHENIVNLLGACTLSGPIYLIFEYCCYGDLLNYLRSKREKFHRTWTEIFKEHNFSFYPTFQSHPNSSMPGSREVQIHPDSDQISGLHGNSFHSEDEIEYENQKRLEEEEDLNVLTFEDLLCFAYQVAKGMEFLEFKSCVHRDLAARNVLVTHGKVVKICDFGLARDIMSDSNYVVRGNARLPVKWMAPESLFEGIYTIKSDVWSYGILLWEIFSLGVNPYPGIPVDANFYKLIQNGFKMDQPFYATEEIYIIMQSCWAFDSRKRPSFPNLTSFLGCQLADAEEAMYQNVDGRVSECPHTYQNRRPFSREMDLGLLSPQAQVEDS

PAK5(h) = molecular target: T5, PAK5(h) (Homo sapiens, UniProt Q9P286); assay: Kinase panel; assay type: biochemical
T5 construct: purchased Millipore KinaseProfiler
T5 sequence (Q9P286 whole entry): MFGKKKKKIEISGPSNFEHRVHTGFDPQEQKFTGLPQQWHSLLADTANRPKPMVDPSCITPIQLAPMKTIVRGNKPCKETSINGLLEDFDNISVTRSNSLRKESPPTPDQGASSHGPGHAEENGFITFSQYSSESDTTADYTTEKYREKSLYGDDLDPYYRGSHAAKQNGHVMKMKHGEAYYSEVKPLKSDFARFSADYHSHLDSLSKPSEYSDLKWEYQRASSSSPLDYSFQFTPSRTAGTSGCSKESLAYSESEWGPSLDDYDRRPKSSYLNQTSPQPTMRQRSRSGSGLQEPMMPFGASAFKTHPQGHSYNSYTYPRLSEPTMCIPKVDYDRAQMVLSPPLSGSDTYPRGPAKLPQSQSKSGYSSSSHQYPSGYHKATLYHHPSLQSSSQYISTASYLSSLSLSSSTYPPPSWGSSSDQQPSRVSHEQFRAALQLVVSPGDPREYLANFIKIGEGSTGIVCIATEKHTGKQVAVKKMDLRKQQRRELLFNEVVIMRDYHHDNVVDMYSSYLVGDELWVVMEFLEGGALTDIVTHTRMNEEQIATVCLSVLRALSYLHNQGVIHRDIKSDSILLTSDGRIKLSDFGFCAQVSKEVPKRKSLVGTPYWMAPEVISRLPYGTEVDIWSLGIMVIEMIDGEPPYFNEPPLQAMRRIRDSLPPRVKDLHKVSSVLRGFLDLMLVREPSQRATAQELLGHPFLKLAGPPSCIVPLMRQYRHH

pPRAS40 in BT474 = assay: phospho-PRAS40 ELISA; assay type: cell-based; details: Homo sapiens, BT-474; BT474, mean ± std dev
Method: (§1) ELISA plates were prepared by coating with anti-GSK3β antibody (R&D Systems), and blocked with 5% Milk/0.1% Tween-20. Cells were seeded at 25,000 cells/96-well overnight and treated with DMSO or various concentrations of drug for 1 h. Cells were lysed in 20 mM Tris-HCl (pH 8.0), 137 mM NaCl, 2 mM EDTA, 10% glycerol and 1% Triton X-100 and lysates transferred to ELISA plates and incubated overnight. The plates were washed and incubated with rabbit anti-phospho-GSK3β (Ser9) antibody (R&D Systems) for 1 h. After washing, plates were developed using HRP-linked anti-rabbit IgG, and 3,3′,5,5′-tetramethylbenzidine as substrate. Absorption was measured in a microplate spectrophotometer at 450 nm. The phospho-PRAS40 ELISA followed similar methodology as above with the exception of using a commercially available PRAS40 (pThr246) kit (Biosource) and following manufacturers' instructions for the ELISA analysis.

pPRAS40 in LNCaP = assay: phospho-PRAS40 ELISA; assay type: cell-based; details: Homo sapiens, mean ± std dev
Method: as §1

EphB3(h) = molecular target: T6, EphB3(h) (Homo sapiens, UniProt P54753); assay: Kinase panel; assay type: biochemical
T6 construct: purchased Millipore KinaseProfiler
T6 sequence (P54753 34-998): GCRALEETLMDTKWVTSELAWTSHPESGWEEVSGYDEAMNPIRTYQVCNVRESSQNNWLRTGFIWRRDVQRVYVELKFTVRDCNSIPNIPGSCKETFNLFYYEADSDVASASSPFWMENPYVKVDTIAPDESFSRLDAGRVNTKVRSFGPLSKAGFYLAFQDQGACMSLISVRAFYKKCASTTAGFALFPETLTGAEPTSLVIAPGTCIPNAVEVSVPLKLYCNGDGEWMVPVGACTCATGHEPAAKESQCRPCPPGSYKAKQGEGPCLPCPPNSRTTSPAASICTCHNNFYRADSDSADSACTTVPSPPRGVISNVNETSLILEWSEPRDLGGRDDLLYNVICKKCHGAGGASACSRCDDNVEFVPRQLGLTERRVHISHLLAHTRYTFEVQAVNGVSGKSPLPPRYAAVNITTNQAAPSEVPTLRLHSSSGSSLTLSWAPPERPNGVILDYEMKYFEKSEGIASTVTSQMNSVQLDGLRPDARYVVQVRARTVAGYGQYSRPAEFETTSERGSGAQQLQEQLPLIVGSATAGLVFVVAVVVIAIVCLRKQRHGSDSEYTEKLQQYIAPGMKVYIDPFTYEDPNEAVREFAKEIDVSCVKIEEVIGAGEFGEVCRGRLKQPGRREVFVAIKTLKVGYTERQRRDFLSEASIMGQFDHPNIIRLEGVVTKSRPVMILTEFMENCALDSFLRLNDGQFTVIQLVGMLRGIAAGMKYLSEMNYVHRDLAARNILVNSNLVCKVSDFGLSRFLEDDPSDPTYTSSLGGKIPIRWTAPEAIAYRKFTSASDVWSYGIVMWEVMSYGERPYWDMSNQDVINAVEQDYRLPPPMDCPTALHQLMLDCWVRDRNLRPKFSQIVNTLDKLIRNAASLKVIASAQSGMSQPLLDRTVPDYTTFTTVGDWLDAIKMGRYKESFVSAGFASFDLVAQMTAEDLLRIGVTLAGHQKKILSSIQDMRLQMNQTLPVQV

T1 sequence (Q9H422 whole entry): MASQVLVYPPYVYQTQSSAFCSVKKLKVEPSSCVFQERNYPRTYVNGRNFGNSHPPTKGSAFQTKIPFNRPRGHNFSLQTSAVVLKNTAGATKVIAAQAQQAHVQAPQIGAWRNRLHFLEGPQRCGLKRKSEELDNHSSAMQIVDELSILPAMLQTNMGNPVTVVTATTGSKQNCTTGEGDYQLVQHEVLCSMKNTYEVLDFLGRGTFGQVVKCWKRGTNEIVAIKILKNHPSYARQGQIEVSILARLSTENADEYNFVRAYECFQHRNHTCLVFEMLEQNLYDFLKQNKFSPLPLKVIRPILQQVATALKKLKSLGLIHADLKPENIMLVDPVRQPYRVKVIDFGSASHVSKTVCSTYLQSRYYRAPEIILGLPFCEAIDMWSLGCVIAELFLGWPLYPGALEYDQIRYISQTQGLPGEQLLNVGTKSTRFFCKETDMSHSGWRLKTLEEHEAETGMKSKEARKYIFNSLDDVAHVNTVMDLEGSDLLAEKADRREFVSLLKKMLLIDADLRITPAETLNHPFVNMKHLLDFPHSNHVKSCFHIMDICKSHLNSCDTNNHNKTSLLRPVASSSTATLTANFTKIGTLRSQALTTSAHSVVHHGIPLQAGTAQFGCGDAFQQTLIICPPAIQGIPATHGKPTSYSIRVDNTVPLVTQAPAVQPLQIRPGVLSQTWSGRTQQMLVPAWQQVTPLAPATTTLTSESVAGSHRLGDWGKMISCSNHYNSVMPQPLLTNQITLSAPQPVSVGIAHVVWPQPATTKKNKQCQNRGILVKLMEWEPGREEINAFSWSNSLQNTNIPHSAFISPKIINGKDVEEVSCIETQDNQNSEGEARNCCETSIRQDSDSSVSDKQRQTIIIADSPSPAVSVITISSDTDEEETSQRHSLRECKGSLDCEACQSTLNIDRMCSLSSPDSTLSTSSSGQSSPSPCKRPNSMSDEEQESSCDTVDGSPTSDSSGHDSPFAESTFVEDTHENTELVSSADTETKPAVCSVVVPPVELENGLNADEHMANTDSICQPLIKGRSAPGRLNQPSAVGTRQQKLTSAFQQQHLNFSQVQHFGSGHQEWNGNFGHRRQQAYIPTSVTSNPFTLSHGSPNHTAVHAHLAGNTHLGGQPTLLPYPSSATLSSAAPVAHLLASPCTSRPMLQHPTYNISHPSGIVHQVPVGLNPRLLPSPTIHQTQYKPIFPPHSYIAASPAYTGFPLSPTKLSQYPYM

`Cn1ncc(Cl)c1-c1cc(C(=O)N[C@H](CN)Cc2cccc(F)c2)sc1Cl` [GSK2110183] was tested, and the inhibition at 0.5 µM (HIPK3(h)) was -3%, the inhibition at 10 µM (HIPK3(h)) was 72% and the inhibition at 0.5 µM (PDGFRβ(h)) was 2%. For the same molecule, the inhibition at 10 µM (PDGFRβ(h)) was 5%, the inhibition at 0.5 µM (LIMK1(h)) was 21% and the inhibition at 10 µM (LIMK1(h)) was 25%. It also gave an inhibition at 0.5 µM (Flt3(h)) of -8%, an inhibition at 10 µM (Flt3(h)) of 24% and an inhibition at 0.5 µM (PAK5(h)) of 2%. The inhibition at 10 µM (PAK5(h)) was 49%, the IC50 (pPRAS40 in BT474) was 121 ± 40 nM and the IC50 (pPRAS40 in LNCaP) was 104 ± 5 nM. For the same molecule, the inhibition at 0.5 µM (EphB3(h)) was 12% and the inhibition at 10 µM (EphB3(h)) was -9%.

Work on `Cn1ncc(Cl)c1-c1cc(C(=O)N[C@H](CN)Cc2ccc(F)c(F)c2)oc1Cl` [GSK2141795] yielded an inhibition at 0.5 µM (HIPK3(h); 0.5 µM, read-out: % Inhibition) of 7%, an inhibition at 10 µM (HIPK3(h); 10 µM, read-out: % Inhibition) of 63% and an inhibition at 0.5 µM (PDGFRβ(h); 0.5 µM, read-out: % Inhibition) of -7%. For the same molecule, the inhibition at 10 µM (PDGFRβ(h); 10 µM, read-out: % Inhibition) was -4%, the inhibition at 0.5 µM (LIMK1(h); 0.5 µM, read-out: % Inhibition) was 3% and the inhibition at 10 µM (LIMK1(h); 10 µM, read-out: % Inhibition) was 18%. The inhibition at 0.5 µM (Flt3(h); 0.5 µM, read-out: % Inhibition) was -12%, the inhibition at 10 µM (Flt3(h); 10 µM, read-out: % Inhibition) was 22% and the inhibition at 0.5 µM (PAK5(h); 0.5 µM, read-out: % Inhibition) was 0%. The inhibition at 10 µM (PAK5(h); 10 µM, read-out: % Inhibition) was 40%, the IC50 (pPRAS40 in BT474) was 39 ± 0.5 nM and the IC50 (pPRAS40 in LNCaP) was 55 ± 2 nM. For the same molecule, the inhibition at 0.5 µM (EphB3(h); 0.5 µM, read-out: % Inhibition) was -2% and the inhibition at 10 µM (EphB3(h); 10 µM, read-out: % Inhibition) was 9%.
